The data set relates to E0771 cells. The data set can be described thus: E0771 orthotopic breast cancer model, intratumoral ASO, tumor volume. The format is in vivo, mouse. The settings on record: ASO 5 nmol intratumoral twice a week, mean, n=12. From the text: Based on the intratumoral experimental data of various mouse breast cancer models and melanoma models (administration started 7 days later, once every 3 days), this example studies the effect comparison between the ASO prodrug (ASO24, whose sequence is shown in SEQ ID No. 2) and PD-1/PD-L1, as well as the effect of their combination.
1×10^5 E0771 cells were orthotopically injected into the fat pad of wild-type mice. Starting from day 7, PD-1 antibody (BioXCell #BE0033, clone J43, the same below) monotherapy, ASO monotherapy, or combined PD-1 antibody and ASO therapy was initiated. For anti-PD-1 antibody monotherapy, intraperitoneal injection was performed once a week at a dose of 3 mg/kg starting 7 days after tumor transplantation, and the control group was injected with DPBS. For MALT1 ASO monotherapy, in vivo-jetPEI®, in vivo DNA transfection kit was used according to the instructions. Intratumoral injection was performed twice a week at a dose of 5 nmol starting 7 days after tumor transplantation, and the control group was injected with solvent or nontarget ASO. Combined therapy will receive the two specified monotherapies. Tumor measurement was started after administration, once every three days. n=12. Data are expressed as mean. Statistical analysis was performed using Two way ANOVA. ** represents p <0.01.

With “GAAGTTCATGAGCCTTGGCCC (antisense GAAGUUCAUGAGCCUUGGCCC; called an ASO prodrug, chemistry not given here) [ASO24]”, the Tumor volume by setting is: (Day 0, E0771 orthotopic fat pad, wild-type mice, from day 7 anti-PD-1 3 mg/kg i.p. once a week) 0 mm^3; (Day 7 (start of treatment), E0771 orthotopic, anti-PD-1 3 mg/kg i.p. once a week) 49 mm^3; (Day 10, E0771 orthotopic, from day 7 anti-PD-1 3 mg/kg i.p. once a week) 36 mm^3; (Day 13, E0771 orthotopic, from day 7 anti-PD-1 3 mg/kg i.p. once a week) 92 mm^3; (Day 16, E0771 orthotopic, from day 7 anti-PD-1 3 mg/kg i.p. once a week) 140 mm^3; (Day 19, E0771 orthotopic, from day 7 anti-PD-1 3 mg/kg i.p. once a week) 306 mm^3.

The record behind these values is US20260258425A1, “MALT1 TUMOR INHIBITOR, PHARMACEUTICAL COMPOSITION CONTAINING THE SAME, AND APPLICATIONS THEREOF” (XZYP (BEIJING) BIOTECH CO., LTD, priority 2023, published 2026).
